These results are taken from PubChem BioAssay AID192 (DTP/NCI, 2004).

Where “and” joins values, the source holds several entries; their conditions need not be identical. Equal values may be shown once. Toxic doses and inconclusive results are not listed.

In this assay the test system is BDF1 mice, B16 melanoma ip, median survival T/C. As to the kind of experiment: NCI In Vivo Anticancer Drug Screen. Data for tumor model B16 Melanoma (intraperitoneal) in B6D2F1 (BDF1) mice. Conditions: endpoint: median survival time, higher = longer survival. Put shortly: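 Mice with transplantable tumors; drug vs vehicle groups; endpoint survival or tumor size; value = T/C.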

[1] abbreviates: dose: 25.0 mg/kg/injection, schedule: Q01DX009 (ip), vehicle: saline with Tween-80.
Setting [2] is: dose: 50.0 mg/kg/injection, schedule: Q01DX009 (ip), vehicle: saline with Tween-80.
Setting [3] is: dose: 100.0 mg/kg/injection, schedule: Q01DX009 (ip), vehicle: saline with Tween-80.
[4] abbreviates: dose: 100.0 mg/kg/injection, schedule: Q01DX009 (ip), vehicle: Klucel (hydroxypropylcellulose) (HPC).
[5] abbreviates: dose: 25.0 mg/kg/injection, schedule: Q01DX009 (ip), vehicle: Klucel (hydroxypropylcellulose) (HPC).
Where [6] appears, read: dose: 50.0 mg/kg/injection, schedule: Q01DX009 (ip), vehicle: Klucel (hydroxypropylcellulose) (HPC).
[7] abbreviates: dose: 25.0 mg/kg/injection, schedule: Q01DX009 (ip), vehicle: saline.
Where [8] appears, read: dose: 50.0 mg/kg/injection, schedule: Q01DX009 (ip), vehicle: saline.
The mark [9] stands for this setting: dose: 12.5 mg/kg/injection, schedule: Q01DX009 (ip), vehicle: saline with Tween-80.

As to `OCCN1CCN(CC/C=C2/c3ccccc3Sc3ccc(C(F)(F)F)cc32)CC1`, the T/C reads like this: (dose: 0.25 mg/kg/injection, schedule: Q01DX009 (ip), vehicle: saline) 97 % of control; (dose: 0.5 mg/kg/injection, schedule: Q01DX009 (ip), vehicle: saline) 106 % of control; (dose: 1.0 mg/kg/injection, schedule: Q01DX009 (ip), vehicle: saline) 111 % of control; (dose: 2.0 mg/kg/injection, schedule: Q01DX009 (ip), vehicle: saline) 105 % of control.

In the case of `CCOC(=O)c1cc(C(=O)OCC)c(=O)oc1OCC`, the T/C was 102 % of control under setting [1], 100 % of control under setting [2] and 100 % of control under setting [3].

In the case of `CCN(C(=O)Nc1ccccc1OC)c1ccccc1`, the T/C under setting [4] was 89 % of control.

Turning to `O=S(=O)(NN=C(c1ccccc1)c1ccccc1)c1ccccc1`, the T/C is, setting by setting: under setting [5], 86 % of control; under setting [6], 91 % of control.

`CCCCCCCCCCCC[N+]1(CCCCCCCCCCCC)CCCC(C)C1` (configuration not stated): the T/C (dose: 0.09 mg/kg/injection, schedule: Q01DX009 (ip), vehicle: Klucel (hydroxypropylcellulose) (HPC)) is 95 % of control; the T/C (dose: 0.18 mg/kg/injection, schedule: Q01DX009 (ip), vehicle: Klucel (hydroxypropylcellulose) (HPC)) is 97 % of control; the T/C (dose: 0.37 mg/kg/injection, schedule: Q01DX009 (ip), vehicle: Klucel (hydroxypropylcellulose) (HPC)) is 93 % of control and 95 % of control.

`O=S(=O)(O)CNc1ccccc1`: the T/C runs as follows: (dose: 100.0 mg/kg/injection, schedule: Q04DX003 (ip), vehicle: saline) 104 % of control; (dose: 200.0 mg/kg/injection, schedule: Q04DX003 (ip), vehicle: saline) 97 % of control; (dose: 400.0 mg/kg/injection, schedule: Q04DX003 (ip), vehicle: saline) 106 % of control.

Consider `C1CN2CN3CCN(CN1C3)C2`, for which the T/C is 99 % of control and 114 % of control (dose: 12.5 mg/kg/injection, schedule: Q01DX009 (ip), vehicle: saline); 103 % of control and 113 % of control under setting [7]; 123 % of control under setting [8].

For the compound `CCN(CC)CCCC#CCN1CCOCC1`, the T/C was 115 % of control under setting [8]; 109 % of control (dose: 100.0 mg/kg/injection, schedule: Q01DX009 (ip), vehicle: saline); 100 % of control (dose: 200.0 mg/kg/injection, schedule: Q01DX009 (ip), vehicle: saline).

As for `CC(=O)c1c(O)c(C)c(O)c2c1OC1=CC(=O)C(C(C)=O)C(=O)C12C` (configuration not stated), the T/C is 107 % of control (dose: 5.0 mg/kg/injection, schedule: Q01DX009 (ip), vehicle: gum acacia); 92 % of control (dose: 6.25 mg/kg/injection, schedule: Q01DX009 (ip), vehicle: gum acacia); 108 % of control (dose: 12.5 mg/kg/injection, schedule: Q01DX009 (ip), vehicle: gum acacia); 100 % of control (dose: 20.0 mg/kg/injection, schedule: Q01DX009 (ip), vehicle: gum acacia); 102 % of control (dose: 40.0 mg/kg/injection, schedule: Q01DX009 (ip), vehicle: gum acacia); 108 % of control (dose: 50.0 mg/kg/injection, schedule: Q01DX009 (ip), vehicle: gum acacia). Also, the T/C is 105 % of control (dose: 80.0 mg/kg/injection, schedule: Q01DX009 (ip), vehicle: gum acacia) and 97 % of control (dose: 100.0 mg/kg/injection, schedule: Q01DX009 (ip), vehicle: gum acacia).

For the compound `O=C(Nc1ccc(C(=O)O)cc1)Oc1ccc(N(CCCl)CCCl)cc1`, the T/C is 109 % of control (dose: 3.13 mg/kg/injection, schedule: Q04DX003 (ip), vehicle: saline with Tween-80); 109 % of control (dose: 6.25 mg/kg/injection, schedule: Q04DX003 (ip), vehicle: saline with Tween-80); 165 % of control under setting [9]; 123 % of control (dose: 12.5 mg/kg/injection, schedule: Q04DX003 (ip), vehicle: saline with Tween-80); 154 % of control under setting [5]; 110 % of control under setting [1]. The T/C runs as follows: (dose: 25.0 mg/kg/injection, schedule: Q04DX003 (ip), vehicle: saline with Tween-80) 151 % of control; (dose: 50.0 mg/kg/injection, schedule: Q04DX003 (ip), vehicle: saline with Tween-80) 164 % of control; (dose: 100.0 mg/kg/injection, schedule: Q04DX003 (ip), vehicle: saline with Tween-80) 205 % of control.

Regarding `NC(=O)OCCCc1ccccc1`, the T/C reads like this: (dose: 12.5 mg/kg/injection, schedule: Q01DX009 (ip), vehicle: Klucel (hydroxypropylcellulose) (HPC)) 100 % of control; under setting [5], 94 % of control; under setting [6], 100 % of control; under setting [4], 107 % of control.

On to `CC(=O)[O][Sn]([CH2]c1ccccc1)([CH2]c1ccccc1)[CH2]c1ccccc1`, for which the T/C by setting is: (dose: 1.5 mg/kg/injection, schedule: Q01DX009 (ip), vehicle: other) 101 % of control; (dose: 3.0 mg/kg/injection, schedule: Q01DX009 (ip), vehicle: other) 96 % of control; (dose: 6.0 mg/kg/injection, schedule: Q01DX009 (ip), vehicle: other) 103 % of control; (dose: 6.25 mg/kg/injection, schedule: Q01DX009 (ip), vehicle: other) 111 % of control.

As to `CC(C)(C)OC(=O)NC(N)=NCCCC(NC(=O)OC(C)(C)C)C(=O)O` (configuration not stated), the T/C was 101 % of control under setting [2]; 88 % of control under setting [3]; 87 % of control (dose: 200.0 mg/kg/injection, schedule: Q01DX009 (ip), vehicle: saline with Tween-80).

With `CN(CCCOS(C)(=O)=O)CCCOS(C)(=O)=O`, the T/C runs as follows: (dose: 6.25 mg/kg/injection, schedule: Q01DX009 (ip), vehicle: saline) 115 % of control; (dose: 10.0 mg/kg/injection, schedule: Q01DX009 (ip), vehicle: saline) 185 % of control; (dose: 20.0 mg/kg/injection, schedule: Q01DX009 (ip), vehicle: saline) 150 % of control; under setting [7], 181 % of control; (dose: 40.0 mg/kg/injection, schedule: Q01DX009 (ip), vehicle: saline) 285 % of control.

Regarding `O=c1cc[nH]c(=O)[nH]1`, the T/C (dose: 32.0 mg/kg/injection, schedule: Q01DX009 (ip), vehicle: Klucel (hydroxypropylcellulose) (HPC)) was 99 % of control and 100 % of control; the T/C (dose: 32.0 mg/kg/injection, schedule: Q01DX009 (ip), vehicle: saline with Tween-80) is 93 % of control; the T/C (dose: 64.0 mg/kg/injection, schedule: Q01DX009 (ip), vehicle: Klucel (hydroxypropylcellulose) (HPC)) is 98 % of control and 106 % of control; the T/C (dose: 64.0 mg/kg/injection, schedule: Q01DX009 (ip), vehicle: saline with Tween-80) was 93 % of control; the T/C (dose: 128.0 mg/kg/injection, schedule: Q01DX009 (ip), vehicle: Klucel (hydroxypropylcellulose) (HPC)) is 101 % of control and 106 % of control; the T/C (dose: 128.0 mg/kg/injection, schedule: Q01DX009 (ip), vehicle: saline with Tween-80) is 98 % of control. The T/C (dose: 256.0 mg/kg/injection, schedule: Q01DX009 (ip), vehicle: Klucel (hydroxypropylcellulose) (HPC)) was 100 % of control and 102 % of control; the T/C (dose: 256.0 mg/kg/injection, schedule: Q01DX009 (ip), vehicle: saline with Tween-80) is 90 % of control; the T/C (dose: 512.0 mg/kg/injection, schedule: Q01DX009 (ip), vehicle: Klucel (hydroxypropylcellulose) (HPC)) was 102 % of control and 105 % of control; the T/C (dose: 512.0 mg/kg/injection, schedule: Q01DX009 (ip), vehicle: saline with Tween-80) is 92 % of control.

Take `Cc1ccc(C2CC3c4ccccc4C2C2CCCCN32)cc1` (configuration not stated): the T/C was 112 % of control (dose: 0.78 mg/kg/injection, schedule: Q01DX009 (ip), vehicle: water); 104 % of control (dose: 1.56 mg/kg/injection, schedule: Q01DX009 (ip), vehicle: water); 99 % of control and 115 % of control (dose: 3.13 mg/kg/injection, schedule: Q01DX009 (ip), vehicle: water); 107 % of control and 110 % of control (dose: 6.25 mg/kg/injection, schedule: Q01DX009 (ip), vehicle: water); 102 % of control (dose: 12.5 mg/kg/injection, schedule: Q01DX009 (ip), vehicle: water); 98 % of control (dose: 25.0 mg/kg/injection, schedule: Q01DX009 (ip), vehicle: water).

On to `C[n+]1ccc(Nc2ccc(NC(=O)c3ccc(Nc4cc[n+](C)c5ccc([N+](=O)[O-])cc45)cc3[N+](=O)[O-])cc2)cc1`, for which the T/C by setting is: under setting [9], 95 % of control; under setting [1], 100 % of control.

With `CCCSc1ncnc2nc[nH]c12`, the T/C runs as follows: under setting [9], 102 % of control; under setting [1], 102 % of control; under setting [2], 97 % of control and 115 % of control; under setting [3], 107 % of control.
